# Results reported in PubChem BioAssay AID1963829 (Molecular Pharmacology Branch, DTP, NCI, 2024).
# System: 935938-334-R-J1-PDC complex spheroid viability
# Experiment: Anticancer human tumor 935938-334-R-J1-PDC patient-derived small intestine adenocarcinoma cell line growth inhibition [POLQ]
# Details: for IC50: curve of first compound; for viability, T/C: stronger effect = lower value
# Outline: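 Patient-derived tumour cells were co-cultured with HUVEC and mesenchymal stem cells as multicellular spheroids at 37 °C. They were treated with POLQ inhibitors (novobiocin, ART-558, RP6685) alone or combined with other agents. Top concentrations were at or near clinical Cmax (otherwise 10 microM; SN-38 at 1 microM), decreasing in half-log steps.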
# [1] = second compound 0.0316 µM, first compound 0.0316 µM
# [2] = second compound 0.0316 µM, first compound 0.1 µM
# [3] = second compound 0.0316 µM, first compound 0.316 µM
# [4] = second compound 0.0316 µM, first compound 1 µM
# [5] = second compound 0.0316 µM, first compound 3.16 µM
# [6] = second compound 0.0316 µM, first compound 10 µM
# [7] = second compound 0.1 µM, first compound 0.0316 µM
# [8] = second compound 0.1 µM, first compound 0.1 µM
# [9] = second compound 0.1 µM, first compound 0.316 µM
# [10] = second compound 0.1 µM, first compound 1 µM
# [11] = second compound 0.1 µM, first compound 3.16 µM
# [12] = second compound 0.1 µM, first compound 10 µM
# [13] = second compound 0.316 µM, first compound 0.0316 µM
# [14] = second compound 0.316 µM, first compound 0.1 µM
# [15] = second compound 0.316 µM, first compound 0.316 µM
# [16] = second compound 0.316 µM, first compound 1 µM
# [17] = second compound 0.316 µM, first compound 3.16 µM
# [18] = second compound 0.316 µM, first compound 10 µM
# [19] = second compound 1 µM, first compound 0.0316 µM
# [20] = second compound 1 µM, first compound 0.1 µM
# [21] = second compound 1 µM, first compound 0.316 µM
# [22] = second compound 1 µM, first compound 1 µM
# [23] = second compound 1 µM, first compound 3.16 µM
# [24] = second compound 1 µM, first compound 10 µM
# [25] = second compound 3.16 µM, first compound 0.0316 µM
# [26] = second compound 3.16 µM, first compound 0.1 µM
# [27] = second compound 3.16 µM, first compound 0.316 µM
# [28] = second compound 3.16 µM, first compound 1 µM
# [29] = second compound 3.16 µM, first compound 3.16 µM
# [30] = second compound 3.16 µM, first compound 10 µM
# [31] = second compound 10 µM, first compound 0.0316 µM
# [32] = second compound 10 µM, first compound 0.1 µM
# [33] = second compound 10 µM, first compound 0.316 µM
# [34] = second compound 10 µM, first compound 1 µM
# [35] = second compound 10 µM, first compound 3.16 µM
# [36] = second compound 10 µM, first compound 10 µM
# 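Also: spheroids exposed to drugs for seven days before viability read.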
# 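For viability, T/C in this document: 100% = DMSO vehicle control wells.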
smiles,measurement,setting,value
O=C(Nc1ccc(O)c(NS(=O)(=O)c2ccc(F)cc2)c1)c1ccc(-c2ccccc2)cc1 + Cc1cccc(N(C)C(=O)C2C(O)CCN2c2nc(C)cc(C(F)(F)F)c2C#N)c1,IC50,second compound 0.0316 µM,> 10000 nM
same,IC50,second compound 0.1 µM,> 10000 nM
same,IC50,second compound 0.316 µM,> 10000 nM
same,IC50,second compound 1 µM,> 10000 nM
same,IC50,second compound 3.16 µM,> 10000 nM
same,IC50,second compound 10 µM,8040 nM
same,"viability, T/C",[1],116%
same,"viability, T/C",[2],91%
same,"viability, T/C",[3],99.3%
same,"viability, T/C",[4],95%
same,"viability, T/C",[5],89.3%
same,"viability, T/C",[6],64.8%
same,"viability, T/C",[7],83%
same,"viability, T/C",[8],73.9%
same,"viability, T/C",[9],76.1%
same,"viability, T/C",[10],109%
same,"viability, T/C",[11],98.1%
same,"viability, T/C",[12],65.9%
same,"viability, T/C",[13],85.9%
same,"viability, T/C",[14],93.9%
same,"viability, T/C",[15],71.4%
same,"viability, T/C",[16],99.2%
same,"viability, T/C",[17],123%
same,"viability, T/C",[18],65.1%
same,"viability, T/C",[19],91.3%
same,"viability, T/C",[20],80.3%
same,"viability, T/C",[21],100%
same,"viability, T/C",[22],92.2%
same,"viability, T/C",[23],72.8%
same,"viability, T/C",[24],56.2%
same,"viability, T/C",[25],93.2%
same,"viability, T/C",[26],114%
same,"viability, T/C",[27],95.3%
same,"viability, T/C",[28],88.6%
same,"viability, T/C",[29],98.6%
same,"viability, T/C",[30],61%
same,"viability, T/C",[31],92.4%
same,"viability, T/C",[32],106%
same,"viability, T/C",[33],101%
same,"viability, T/C",[34],100%
same,"viability, T/C",[35],71.1%
same,"viability, T/C",[36],45.1%
CC1COCCN1c1cc(C2(S(C)(=N)=O)CC2)nc(-c2ccnc3[nH]ccc23)n1 (stereo not drawn) + COC1C(OC(N)=O)C(O)C(Oc2ccc3c(O)c(NC(=O)c4ccc(O)c(CC=C(C)C)c4)c(=O)oc3c2C)OC1(C)C,IC50,second compound 0.0316 µM,2740 nM
same,IC50,second compound 0.1 µM,2130 nM
same,IC50,second compound 0.316 µM,2220 nM
same,IC50,second compound 1 µM,3880 nM
same,IC50,second compound 3.16 µM,2440 nM
same,IC50,second compound 10 µM,2130 nM
same,"viability, T/C",[1],111%
same,"viability, T/C",[2],85.8%
same,"viability, T/C",[3],85.7%
same,"viability, T/C",[4],59.5%
same,"viability, T/C",[5],58.6%
same,"viability, T/C",[6],23.1%
same,"viability, T/C",[7],122%
same,"viability, T/C",[8],102%
same,"viability, T/C",[9],82.3%
same,"viability, T/C",[10],67.8%
same,"viability, T/C",[11],43.1%
same,"viability, T/C",[12],17.7%
same,"viability, T/C",[13],104%
same,"viability, T/C",[14],69%
same,"viability, T/C",[15],81.9%
same,"viability, T/C",[16],73%
same,"viability, T/C",[17],38.4%
same,"viability, T/C",[18],17.3%
same,"viability, T/C",[19],96.1%
same,"viability, T/C",[20],80.3%
same,"viability, T/C",[21],84.8%
same,"viability, T/C",[22],64.8%
same,"viability, T/C",[23],65.8%
same,"viability, T/C",[24],14.9%
same,"viability, T/C",[25],86.2%
same,"viability, T/C",[26],87.8%
same,"viability, T/C",[27],90.2%
same,"viability, T/C",[28],68.4%
same,"viability, T/C",[29],45.1%
same,"viability, T/C",[30],16.3%
same,"viability, T/C",[31],105%
same,"viability, T/C",[32],82.5%
same,"viability, T/C",[33],95.2%
same,"viability, T/C",[34],58.1%
same,"viability, T/C",[35],44.3%
same,"viability, T/C",[36],17.3%
C=CCn1c(=O)c2cnc(Nc3ccc(N4CCN(C)CC4)cc3)nc2n1-c1cccc(C(C)(C)O)n1 + COC1C(OC(N)=O)C(O)C(Oc2ccc3c(O)c(NC(=O)c4ccc(O)c(CC=C(C)C)c4)c(=O)oc3c2C)OC1(C)C,IC50,second compound 0.0316 µM,651 nM
same,IC50,second compound 0.1 µM,593 nM
same,IC50,second compound 0.316 µM,729 nM
same,IC50,second compound 1 µM,585 nM
same,IC50,second compound 3.16 µM,617 nM
same,IC50,second compound 10 µM,392 nM
same,"viability, T/C","second compound 0.0316 µM, first compound 0.00316 µM",97.9%
same,"viability, T/C","second compound 0.0316 µM, first compound 0.01 µM",135%
same,"viability, T/C",[1],82.4%
same,"viability, T/C",[2],135%
same,"viability, T/C",[3],84.5%
same,"viability, T/C",[4],29.5%
same,"viability, T/C","second compound 0.1 µM, first compound 0.00316 µM",136%
same,"viability, T/C","second compound 0.1 µM, first compound 0.01 µM",111%
same,"viability, T/C",[7],88.8%
same,"viability, T/C",[8],134%
same,"viability, T/C",[9],71.4%
same,"viability, T/C",[10],32.1%
same,"viability, T/C","second compound 0.316 µM, first compound 0.00316 µM",126%
same,"viability, T/C","second compound 0.316 µM, first compound 0.01 µM",96.7%
same,"viability, T/C",[13],80.4%
same,"viability, T/C",[14],128%
same,"viability, T/C",[15],78.1%
same,"viability, T/C",[16],39.4%
same,"viability, T/C","second compound 1 µM, first compound 0.00316 µM",93.1%
same,"viability, T/C","second compound 1 µM, first compound 0.01 µM",112%
same,"viability, T/C",[19],123%
same,"viability, T/C",[20],86.3%
same,"viability, T/C",[21],74.8%
same,"viability, T/C",[22],30.4%
same,"viability, T/C","second compound 3.16 µM, first compound 0.00316 µM",130%
same,"viability, T/C","second compound 3.16 µM, first compound 0.01 µM",96.8%
same,"viability, T/C",[25],100%
same,"viability, T/C",[26],112%
same,"viability, T/C",[27],82.5%
same,"viability, T/C",[28],26.6%
same,"viability, T/C","second compound 10 µM, first compound 0.00316 µM",90.5%
same,"viability, T/C","second compound 10 µM, first compound 0.01 µM",115%
same,"viability, T/C",[31],120%
same,"viability, T/C",[32],86.7%
same,"viability, T/C",[33],57.9%
same,"viability, T/C",[34],24.5%
COc1cc(C2c3cc4c(cc3C(OC3OC5COC(C)OC5C(O)C3O)C3COC(=O)C23)OCO4)cc(OC)c1O (stereo not drawn) + COC1C(OC(N)=O)C(O)C(Oc2ccc3c(O)c(NC(=O)c4ccc(O)c(CC=C(C)C)c4)c(=O)oc3c2C)OC1(C)C,IC50,second compound 0.0316 µM,1040 nM
same,IC50,second compound 0.1 µM,683 nM
same,IC50,second compound 0.316 µM,691 nM
same,IC50,second compound 1 µM,569 nM
same,IC50,second compound 3.16 µM,887 nM
same,IC50,second compound 10 µM,706 nM
same,"viability, T/C",[1],97.7%
same,"viability, T/C",[2],81.4%
same,"viability, T/C",[3],70.2%
same,"viability, T/C",[4],47.3%
same,"viability, T/C",[5],39.5%
same,"viability, T/C",[6],29.4%
same,"viability, T/C",[7],105%
same,"viability, T/C",[8],94%
same,"viability, T/C",[9],67.3%
same,"viability, T/C",[10],41.8%
same,"viability, T/C",[11],30.8%
same,"viability, T/C",[12],30.7%
same,"viability, T/C",[13],134%
same,"viability, T/C",[14],85.2%
same,"viability, T/C",[15],80.4%
same,"viability, T/C",[16],32.8%
same,"viability, T/C",[17],27.5%
same,"viability, T/C",[18],26%
same,"viability, T/C",[19],105%
same,"viability, T/C",[20],126%
same,"viability, T/C",[21],62.2%
same,"viability, T/C",[22],57.6%
same,"viability, T/C",[23],26.7%
same,"viability, T/C",[24],30.6%
same,"viability, T/C",[25],78%
same,"viability, T/C",[26],108%
same,"viability, T/C",[27],83.3%
same,"viability, T/C",[28],46.7%
same,"viability, T/C",[29],28.9%
same,"viability, T/C",[30],32.6%
same,"viability, T/C",[31],96.9%
same,"viability, T/C",[32],75.9%
same,"viability, T/C",[33],68.7%
same,"viability, T/C",[34],43.9%
same,"viability, T/C",[35],27.4%
same,"viability, T/C",[36],35.5%
